According to the NIST ThermoML archive (doi:10.1021/acs.jced.8b00755):
± gives the expanded uncertainty stated by the source.

What was measured:
[1] = xn = mol fraction of the nth substance listed; conditions: 298.15 K, 101.3 kPa, Liquid, Vibrating tube method
[2] = refractive index (Na D-line) (dimensionless); xn = mol fraction of the nth substance listed; conditions: 298.15 K, 101.3 kPa, Liquid, Standard Abbe refractometry
[3] = relative permittivity at zero frequency (dimensionless); xn = mol fraction of the nth substance listed; conditions: 298.15 K, 101.3 kPa, Liquid, Coaxial cylinder capacitor
[4] = refractive index (Na D-line) (dimensionless); conditions: 298.15 K; 101.3 kPa; Liquid; Standard Abbe refractometry
[5] = relative permittivity at zero frequency (dimensionless); conditions: 298.15 K; 101.3 kPa; Liquid; Coaxial cylinder capacitor
[6] = 298.15 K; 101.3 kPa; Liquid; Vibrating tube method

O=C1CCCCC1 [cyclohexanone] + CCCCCCO
Conditions | mass density, [1] [kg/m3] | refractive index, [2] | relative permittivity at zero frequency, [3]
x2 = 0 | 942.47 ± 1 | 1.4485 ± 0.0011 | 15.81 ± 0.68
x2 = 0.1 | 927.39 ± 1.1 | 1.4444 ± 0.0011 | 14.93 ± 0.66
x2 = 0.2 | 912.83 ± 1.1 | 1.4405 ± 0.0011 | 14.2 ± 0.65
x2 = 0.3 | 898.77 ± 1.1 | 1.4367 ± 0.0011 | 13.59 ± 0.63
x2 = 0.4 | 885.19 ± 1.1 | 1.4332 ± 0.0011 | 13.13 ± 0.62
x2 = 0.5 | 872.11 ± 1.1 | 1.4299 ± 0.0011 | 12.79 ± 0.62
x2 = 0.6 | 859.53 ± 1.1 | 1.4267 ± 0.0011 | 12.58 ± 0.61
x2 = 0.7 | 847.55 ± 1.1 | 1.4237 ± 0.0011 | 12.5 ± 0.61
x2 = 0.8 | 836.36 ± 1.1 | 1.4209 ± 0.0011 | 12.57 ± 0.61
x2 = 0.9 | 825.91 ± 1.2 | 1.4184 ± 0.0011 | 12.76 ± 0.62

O=C1CCCCC1 [cyclohexanone] + CCCCO
Conditions | mass density, [1] [kg/m3] | refractive index, [2] | relative permittivity at zero frequency, [3]
x2 = 0 | 942.47 ± 1 | 1.4485 ± 0.0011 | 15.81 ± 0.68
x2 = 0.1 | 932.83 ± 1 | 1.4441 ± 0.0011 | 15.3 ± 0.67
x2 = 0.2 | 922.35 ± 1.1 | 1.4396 ± 0.0011 | 14.95 ± 0.66
x2 = 0.3 | 910.57 ± 1.1 | 1.4347 ± 0.0011 | 14.71 ± 0.66
x2 = 0.4 | 897.77 ± 1.1 | 1.4301 ± 0.0011 | 14.62 ± 0.66
x2 = 0.5 | 883.98 ± 1.1 | 1.4253 ± 0.0011 | 14.71 ± 0.66
x2 = 0.6 | 869.51 ± 1.1 | 1.4204 ± 0.0011 | 14.97 ± 0.66
x2 = 0.7 | 854.54 ± 1.1 | 1.4147 ± 0.0011 | 15.39 ± 0.67
x2 = 0.8 | 838.96 ± 1.1 | 1.4086 ± 0.0011 | 15.97 ± 0.68
x2 = 0.9 | 822.78 ± 1.1 | 1.4035 ± 0.0011 | 16.68 ± 0.7

O=C1CCCCC1 [cyclohexanone] + CCO
Conditions | mass density, [1] [kg/m3] | refractive index, [2] | relative permittivity at zero frequency, [3]
x2 = 0 | 942.47 ± 1 | 1.4485 ± 0.0011 | 15.81 ± 0.68
x2 = 0.1 | 938.01 ± 1 | 1.4449 ± 0.0011 | 15.84 ± 0.68
x2 = 0.2 | 930.92 ± 1 | 1.4401 ± 0.0011 | 15.98 ± 0.68
x2 = 0.3 | 921.48 ± 1 | 1.4339 ± 0.0011 | 16.36 ± 0.69
x2 = 0.4 | 910.02 ± 1.1 | 1.4268 ± 0.0011 | 16.97 ± 0.7
x2 = 0.5 | 896.25 ± 1.1 | 1.4187 ± 0.0011 | 17.76 ± 0.72
x2 = 0.6 | 879.92 ± 1.1 | 1.4094 ± 0.0011 | 18.72 ± 0.74
x2 = 0.7 | 860.95 ± 1.1 | 1.3988 ± 0.0011 | 19.88 ± 0.76
x2 = 0.8 | 839.21 ± 1.1 | 1.3869 ± 0.0011 | 21.19 ± 0.78
x2 = 0.9 | 814.29 ± 1.2 | 1.3739 ± 0.0011 | 22.68 ± 0.81

O=C1CCCCC1 [cyclohexanone] + OC1CCCCC1
x2 = 0
Conditions | refractive index | relative permittivity at zero frequency
[2] | 1.4485 ± 0.0011 | –
[3] | – | 15.81 ± 0.68

O=C1CCCC1 [cyclopentanone]
Conditions | refractive index | relative permittivity at zero frequency
[4] | 1.4347 ± 0.0011 | –
[5] | – | 13.52 ± 0.63

O=C1CCCC1 [cyclopentanone] + C1CCCCC1
Conditions | refractive index, [2] | relative permittivity at zero frequency, [3]
x1 = 0.1 | 1.4236 ± 0.001 | 2.78 ± 0.32
x1 = 0.2 | 1.4239 ± 0.001 | 3.61 ± 0.36
x1 = 0.3 | 1.4244 ± 0.001 | 4.51 ± 0.39
x1 = 0.4 | 1.4252 ± 0.001 | 5.51 ± 0.42
x1 = 0.5 | 1.4262 ± 0.001 | 6.6 ± 0.46
x1 = 0.6 | 1.4274 ± 0.001 | 7.78 ± 0.49
x1 = 0.7 | 1.4289 ± 0.0011 | 9.06 ± 0.53
x1 = 0.8 | 1.4306 ± 0.0011 | 10.45 ± 0.56
x1 = 0.9 | 1.4325 ± 0.0011 | 11.94 ± 0.6
x1 = 1 | 1.4347 ± 0.0011 | 13.52 ± 0.63

O=C1CCCC1 [cyclopentanone] + OC1CCCCC1
Conditions | refractive index, [2] | relative permittivity at zero frequency, [3]
x2 = 0 | 1.4347 ± 0.0011 | 13.52 ± 0.63
x2 = 0.1 | 1.4372 ± 0.0011 | 13.1 ± 0.62
x2 = 0.2 | 1.4397 ± 0.0011 | 12.78 ± 0.62
x2 = 0.3 | 1.4423 ± 0.0011 | 12.55 ± 0.61
x2 = 0.4 | 1.445 ± 0.0011 | 12.42 ± 0.61
x2 = 0.5 | 1.4479 ± 0.0011 | 12.43 ± 0.61
x2 = 0.6 | 1.4509 ± 0.0011 | 12.61 ± 0.61
x2 = 0.7 | 1.4541 ± 0.0011 | 12.99 ± 0.62
x2 = 0.8 | 1.4575 ± 0.0011 | 13.59 ± 0.63
x2 = 0.9 | 1.461 ± 0.0011 | 14.48 ± 0.65

CCCCCCCCCCO [decan-1-ol]
Conditions | mass density [kg/m3] | refractive index | relative permittivity at zero frequency
[4] | – | 1.4352 ± 0.0011 | –
[5] | – | – | 7.74 ± 0.49
[6] | 826.71 ± 1 | – | –

CCCCCCCCCCO [decan-1-ol] + O=C1CCCCC1
x1 = 1
Conditions | mass density [kg/m3] | refractive index | relative permittivity at zero frequency
[1] | 826.71 ± 1 | – | –
[2] | – | 1.4352 ± 0.0011 | –
[3] | – | – | 7.74 ± 0.49

CCO [ethanol]
Conditions | mass density [kg/m3] | refractive index | relative permittivity at zero frequency
[4] | – | 1.3594 ± 0.0011 | –
[5] | – | – | 24.37 ± 0.84
[6] | 785.26 ± 1 | – | –

CCO [ethanol] + O=C1CCCCC1
x1 = 1
Conditions | mass density [kg/m3] | refractive index | relative permittivity at zero frequency
[1] | 785.26 ± 1 | – | –
[2] | – | 1.3594 ± 0.0011 | –
[3] | – | – | 24.37 ± 0.84

CCCCCCO [hexan-1-ol]
Conditions | mass density [kg/m3] | refractive index | relative permittivity at zero frequency
[4] | – | 1.4161 ± 0.0011 | –
[5] | – | – | 13.06 ± 0.62
[6] | 815.99 ± 1.2 | – | –

CCCCCCO [hexan-1-ol] + O=C1CCCCC1
x1 = 1
Conditions | mass density [kg/m3] | refractive index | relative permittivity at zero frequency
[1] | 815.99 ± 1.2 | – | –
[2] | – | 1.4161 ± 0.0011 | –
[3] | – | – | 13.06 ± 0.62

CCCCCCCCO [octan-1-ol]
Conditions | mass density [kg/m3] | refractive index | relative permittivity at zero frequency
[4] | – | 1.4276 ± 0.0011 | –
[5] | – | – | 9.85 ± 0.55
[6] | 821.98 ± 1 | – | –

CCCCCCCCO [octan-1-ol] + O=C1CCCCC1
x1 = 1
Conditions | mass density [kg/m3] | refractive index | relative permittivity at zero frequency
[1] | 821.98 ± 1 | – | –
[2] | – | 1.4276 ± 0.0011 | –
[3] | – | – | 9.85 ± 0.55
